Values joined by “and” are separate entries in the source; they are usually repeats but may differ in a detail not shown here. Equal entries are not always repeated.
Columns and labels:
Rattus norvegicus [1] = conditions: short-term; duration: 11 days; inhalation; M/F; Fischer 344; respiratory
Canidae = conditions: chronic, oral, diet, Dog Other
Rattus norvegicus [2] = conditions: M/F
Rattus norvegicus [3] = conditions: subchronic, oral, gavage
Rattus norvegicus [4] = conditions: for LD50 / LC50: acute
Oryctolagus sp. = conditions: dermal; for LD50: acute
[5] = duration: 2 years, M/F, elevated alkaline phosphatase + Increase in thyroid/body weight ratio + slight increase in liver weights
[6] = chronic, duration: 2 years, oral, diet, reduced body weight
[7] = short-term, duration: 2 weeks, oral, gavage, B6C3F1
[8] = subchronic, duration: 13 weeks, inhalation, B6C3F1
[9] = subchronic, duration: 13 weeks, oral, gavage, B6C3F1
[10] = short-term, duration: 2 weeks, oral, gavage, Fischer 344
[11] = subchronic, duration: 13 weeks, inhalation, Sprague-Dawley
[12] = subchronic, duration: 13 weeks, oral, gavage, F, Fischer 344
[13] = subchronic, duration: 13 weeks, oral, gavage, M, Fischer 344
[14] = subchronic, oral, kidney lesions
[15] = reproduction developmental, oral, reduced body weight gain in f1 females

Compound: C=C(Cl)CCl [2,3-Dichloro-1-propene]
- LOAEL (Rattus norvegicus [1]): 22.7 mg/m3

Compound: Cc1[nH]c(=O)n(C(C)(C)C)c(=O)c1Cl [Terbacil]
- LEL (Canidae; [5]): 6.25 mg/kg-day
- NOEL (Canidae; [5]): 1.25 mg/kg-day

Compound: COC(=O)c1ccccc1S(=O)(=O)NC(=O)Nc1nc(C)nc(OC)n1 [Metsulfuron-methyl]
- LEL (Rattus norvegicus [2]; [6]): 250 mg/kg-day
- NOEL (Rattus norvegicus [2]; [6]): 25 mg/kg-day

Compound: C=CC(=O)NCO [N-Methylolacrylamide]
- NOEL (Rattus norvegicus [3]; duration: 13 weeks, M/F, Fischer 344, Deaths + Clinical Observation: Hind limb paresis + Functional Observational Battery: Hind limb-grip strength decrease Auditory startle …): < 12.5 mg/kg-day
- LD50 (Mus musculus; acute, oral, DD): 677 mg/kg
- LD50 (Mus musculus; acute, oral, gavage, B6C3F1): 400 mg/kg
- NOAEL (Mus musculus; short-term, duration: 16 days, oral, gavage, B6C3F1): 100 mg/kg-day
- NOAEL (Mus musculus; subchronic, duration: 90 days, oral, gavage, B6C3F1): 12.5 mg/kg-day
- LD50 (Rattus norvegicus [4]; oral, gavage, Fischer 344): 400 mg/kg
- NOAEL (Rattus norvegicus [4]; short-term, duration: 16 days, oral, gavage, Fischer 344): 50 mg/kg-day
- NOAEL (Rattus norvegicus [4]; short-term, duration: 28 days, oral, diet): 4 mg/kg-day
- NOAEL (Rattus norvegicus [4]; subchronic, duration: 90 days, oral, gavage, Fischer 344): 12.5 mg/kg-day

Compound: C=CC1CC=CCC1 (centres undefined) [4-Vinylcyclohexene]
- NOEL (Rattus norvegicus [3]; duration: 13 weeks, M/F, Fischer 344, Deaths + Body Weight Changes: decrease + Histopathology: Kidney-Hyaline droplet degeneration Glandular stomach-Inflammation): < 50 mg/kg-day
- NOEL (Rattus norvegicus [3]; M, Sprague-Dawley, Clinical Observation: Salivation Locomotor activity decrease + Relative Organ Weight: Kidney increase + Histopathology: Stomach/Glandular …): < 2 mg/kg-day
- LC50 (Mus musculus; acute, inhalation): 46900 mg/m3
- NOAEL (Mus musculus; short-term, duration: 2 weeks, inhalation, B6C3F1): 3190 mg/m3
- LOAEL (Mus musculus; [7]): 2500 mg/kg-day
- NOAEL (Mus musculus; [7]): 1250 mg/kg-day
- LOAEL (Mus musculus; [8]): 4420 mg/m3
- NOAEL (Mus musculus; [8]): 1110 mg/m3
- LOAEL (Mus musculus; [9]): 1200 mg/kg-day
- NOAEL (Mus musculus; [9]): 600 mg/kg-day
- LC50 (Rattus norvegicus [4]; inhalation): 27000 mg/m3 and < 35400 mg/m3
- LD50 (Rattus norvegicus [4]; oral, gavage, Carworth Wistar): 2560 mg/kg
- NOAEC (Rattus norvegicus [4]; short-term, duration: 2 weeks, inhalation, F, Sprague-Dawley): 6640 mg/m3
- NOAEC (Rattus norvegicus [4]; short-term, duration: 2 weeks, inhalation, M, Sprague-Dawley): 3190 mg/m3
- LOAEL (Rattus norvegicus [4]; [10]): 1250 mg/kg-day
- NOAEL (Rattus norvegicus [4]; [10]): 600 mg/kg-day
- LOAEL (Rattus norvegicus [4]; [11]): 4420 mg/m3
- NOAEL (Rattus norvegicus [4]; [11]): 1110 mg/m3
- LOAEL (Rattus norvegicus [4]; [12]): 800 mg/kg-day
- NOAEL (Rattus norvegicus [4]; [12]): 400 mg/kg-day
- LOAEL (Rattus norvegicus [4]; [13]): 400 mg/kg-day
- NOAEL (Rattus norvegicus [4]; [13]): 200 mg/kg-day

Compound: CCCCCCCCCCCCCCC [Pentadecane]
- LD50 (Mus musculus; acute, injection, intravenous): 3490 mg/kg

Compound: c1ccc(-c2ccccc2)cc1 [Biphenyl]
- LD50 (Oryctolagus sp.; New Zealand): > 5010 mg/kg
- LOAEL (Mus musculus; subchronic, duration: 13 weeks, inhalation, CD1): 158 mg/m3
- LD50 (Rattus norvegicus [4]; oral, Sprague-Dawley): 2400 mg/kg
- LD50 (Rattus norvegicus [4]; oral, gavage, Sprague-Dawley): 3280 mg/kg
- NOAEL (Rattus norvegicus [4]; chronic, duration: 750 days, oral, diet): 78 mg/kg-day
- NOAEL (Rattus norvegicus [4]; developmental, duration: 10 days, oral, gavage, Wistar): 500 mg/kg-day
- NOAEL (Rattus norvegicus [4]; reproduction developmental, duration: 10 days, oral, gavage, F, Wistar): 500 mg/kg-day
- NOAEL (Rattus norvegicus [4]; reproduction developmental, duration: 750 days, oral, diet, generation: F0): 1000 ppm
- NOAEL (Rattus norvegicus [4]; reproduction developmental, duration: 750 days, oral, diet, generation: F1): 5000 ppm
- NOAEL (Rattus norvegicus [4]; reproduction developmental, oral, diet, Long-Evans, generation: F0): 1000 ppm

Compound: C[CH2][Pb]([CH2]C)([CH2]C)[CH2]C [Tetraethyl lead]
- LOAEL (Rattus norvegicus [2]; subchronic, oral, histopathology: liver and thymus): 0.0017 mg/kg-day

Compound: Clc1cc(Cl)c(Cl)cc1Cl [1,2,4,5-Tetrachlorobenzene]
- LOAEL (Rattus norvegicus [2]; [14]): 3.4 mg/kg-day
- NOAEL (Rattus norvegicus [2]; [14]): 0.34 mg/kg-day

Compound: N#Cc1cccc(C#N)c1 [1,3-Benzenedicarbonitrile]
- LD50 (Oryctolagus sp.; occlusive): > 2000 mg/kg
- NOAEL (Oryctolagus sp.; short-term, duration: 3 weeks, non-occlusive, New Zealand): 500 mg/kg-day
- NOAEL (Mus musculus; chronic, duration: 91 days, oral, diet, CD1): 20 mg/kg-day
- LC50 (Rattus norvegicus [4]; Inhalation, Sprague-Dawley): > 8970 mg/m3
- LD50 (Rattus norvegicus [4]; oral, gavage): > 5010 mg/kg
- NOAEL (Rattus norvegicus [4]; chronic, duration: 99 days, oral, diet, F, Charles River Crl:CD BR VAF/PLUS): 5 mg/kg-day
- NOAEL (Rattus norvegicus [4]; chronic, duration: 99 days, oral, diet, M, Charles River Crl:CD BR VAF/PLUS): 1 mg/kg-day
- NOAEL (Rattus norvegicus [4]; reproduction developmental, duration: 122 days, oral, diet, F): 25 mg/kg-day
- NOAEL (Rattus norvegicus [4]; short-term, duration: 14 days, Inhalation, Sprague-Dawley): 190 mg/m3

Compound: Nc1c(Cl)c(Cl)nc(C(=O)O)c1Cl [Picloram]
- NOEL (Canidae; duration: 6 months, M/F, increased liver weight): 7 mg/kg-day
- LEL (Canidae; duration: 6 months, M, increased liver weight): 35 mg/kg-day

Compound: CNC(=O)N(C)c1nnc(C(C)(C)C)s1 [Tebuthiuron]
- LEL (Rattus norvegicus [2]; [15]): 14 mg/kg-day
- NOEL (Rattus norvegicus [2]; [15]): 7 mg/kg-day

Compound: CCOC(C)(C)C [Ethyl t-butyl ether]
- NOAEL (Rattus norvegicus [2]; chronic, duration: 2 years, inhalation, Fischer 344, Increased absolute kidney weight in female rats): 6270 mg/m3

From EPA's ToxValDB 9.5
